# Experimental data reported in article PMC10733463, “Berberine-microbiota interplay: orchestrating gut health through modulation of the gut microbiota and metabolic transformation into bioactive metabolites” (Frontiers in Pharmacology, 2023).
# How the values were obtained:
# [1] = UPLC-MS/MS quantification of berberine and metabolites in plasma; type: in vivo, Ross 308 broiler chickens; conditions: chickens fed 0.1, 0.5 or 1 g berberine/kg feed for 21 days; LOQ 0.1 ng/mL
# Excerpt: (§1) The study was undertaken following the guidelines of the ethics committee of the Faculty of Veterinary Medicine and Bioscience Engineering, Ghent University, in accordance with the EU Directive 2010/63/EU. One-day-old Ross 308 male broilers were obtained from a local hatchery and housed in pens on wood shavings. They were allotted into 4 groups, with three replicate pens per group each housing 8 chickens. The animals were not vaccinated. Water and commercial starter feed (day 1–12, FARM 1 Mash, Country’s Best, Versele Laga, Deinze, Belgium) or grower (day 13–21, FARM 2 mash, Country’s Best, Versele Laga, Deinze, Belgium) were provided ad libitum. The control group received the standard non-supplemented diets, whereas the chickens in other groups were fed the same feed supplemented with 0.1, 0.5 or 1 g berberine/kg feed throughout the whole trial period. At day 21, 4 birds per pen were weighted then euthanized by sodium pentobarbital injection for sampling. Individual jejunal, ileal, caecal and colonic contents were stored at −20°C for microbiota composition analysis (16S rRNA gene sequencing). Additionally, ileal and caecal content samples were collected and stored at −20°C for berberine and berberine-derived metabolite quantification. Duodenal tissue samples were collected and fixed in 4% phosphate buffered formaldehyde for histological analysis. Blood samples were collected in heparin tubes and centrifuged at 524 g for 10 min to recover the plasma fraction, which was further mixed with 17 mg/mL L-ascorbic acid for dihydroberberine stabilization, and stored at −20°C for berberine and berberine-derived metabolite quantification.
# (§2) The column temperature was maintained at 25°C. The autosampler temperature was set at 10°C.
# A 137.5 µL plasma sample containing 17 mg/mL L-ascorbic acid was used for sample extraction. The ascorbic acid solution was added to prevent oxidation of dihydroberberine to berberine during sample storage ([Feng et al., 2015]). The plasma sample was transferred to an OstroTM 96 well-plate (25 mg) (Waters). Subsequently, 50 µL Milli-Q water and 25 µL of an internal standard solution containing 100 ng/mL of both berberine-d6 and tetrahydropalmatine were added. A 640 µL volume of 1% (v/v) formic acid solution in acetonitrile (1/3 ratio) was added, followed by gentle mixing. Vacuum was applied on the Ostro™ plate for 5 min and the eluate was collected in a 2 mL square 96-well collector plate. The sample was transferred in a glass tube and evaporated at 40°C under a gentle stream of nitrogen in a Pierce (Rockford, United States) Reacti-Therm III™ Heating Module and Reacti-Vap™ III Module. The dried sample extract was reconstituted in 500 µL Milli-Q water, followed by injection of a 5 µL sample aliquot onto the UPLC-MS/MS apparatus. Quantification was based on the ratio of the analyte peak area compared to the peak area of the internal standard berberine-d6.
# Calibration standards and quality control samples were prepared as follows: 137.5 µL of blank plasma stabilized with 17 mg/mL L-ascorbic acid were supplemented with 25 µL mixed working solutions of berberine and metabolites (except dihydroberberine) at different levels, 25 µL of dihydroberberine working solution, stabilized with 17 mg/mL L-ascorbic acid, at different levels and 25 µL of an internal standard solution containing 100 ng/mL of both berberine-d6 and tetrahydropalmatine. The calibration curve was in the 0.1–100 ng/mL range, including 0.1, 0.5, 1, 2.5, 5, 10, 25, […], 50 and 100 ng/mL levels.
# The UPLC-MS/MS analysis method for the quantification of berberine and berberine-derived metabolites both in plasma and ileal/caecal intestinal content was validated to the guidelines of the European Medicines Agency, i.e., of the Committee for Veterinary Medicinal Products (EMEA/CVMP/VICH/463202/2009) and of the Committee for Medicinal Products for Human Use (EMEA/CHMP/EWP/192217/20), and in accordance with the EU Directive 2002/657/EC. […]
# Caco-2 cells = test: Berberine metabolism in intestinal cell cultures, Caco-2; type: in vitro ADME, human
# Protocol: (§3) Caco-2 and T84 cells were seeded at 2 × 10^5 cells/well in 96-well plates and cultivated for 24 h in their respective medium, as described before. Cells were treated with 200 µL of 0.1 μg/mL berberine in antibiotic-free medium and incubated for 48 h. Berberine medium only was incubated in the same conditions as the cells and used as control for metabolite baseline levels. 100 μL of cell cultures or control medium were collected and centrifuged at 13,000 g for 10 min 80 μL of the supernatant was mixed with 20 µL 170 mg/mL L-ascorbic acid solution in water for dihydroberberine stabilization and stored at −20°C until metabolite analysis. All experiments were performed in triplicate at 37°C, 5% CO2. Metabolite production was expressed as a log2 fold change, calculated as the log2 of the ratio of the metabolite response at t = 48 h in the cell cultures over the metabolite response at t = 48 h in the control medium.
# as §2
# [2] = UPLC-MS/MS quantification of berberine and metabolites in ileal and caecal content; type: in vivo, Ross 308 broiler chickens; conditions: 21 days
# Excerpt: as §1, §2
# 250 mg of ileal or caecal content was weighed in a 15 mL polypropylene centrifuge tube and 250 µL of ascorbic acid 170 mg/mL solution was added for stabilization of dihydroberberine, followed by brief vortexing. Subsequently, 25 µL of an internal standard solution containing 250 μg/mL of berberine-d6 and 2.5 μg/mL tetrahydropalmatine were added, followed by brief vortexing. A 2.5 mL volume of extraction solvent was then added, consisting of a 1% (v/v) formic acid solution in methanol. The sample was put on a rotary shaker set at 80 rpm for 20 min, followed by centrifugation (3,720 g, 10 min, 4°C). The supernatant was then diluted, by a factor 5 for measurement of low abundance components, and by a factor 2,000 for measurement of high abundance components. The 1/5 diluted sample extract was prepared directly in an autosampler vial as follows: 200 µL sample extract were mixed with 100 µL ascorbic acid 170 mg/mL solution and 700 µL Milli-Q water. For the 1/2,000 diluted sample extract, an intermediate 1/100 sample dilution was prepared by combining 500 µL sample extract and 49.5 mL of Milli-Q water. 50 μL was then transferred in an autosampler vial followed by the addition of 950 µL of Milli-Q water. For both dilutions, a 5 µL sample aliquot was injected onto the UPLC-MS/MS apparatus. Quantification was based on the ratio of the analyte peak area compared to the peak area of the internal standard tetrahydropalmatine for 1/5 diluted sample extracts, and on the ratio of the analyte peak area compared to the peak area of the internal standard berberine-d6 for 1/2,000 diluted sample extracts.
# Calibration standards and quality control samples were prepared as follows: 250 mg of blank ileal or caecal content were supplemented with 250 µL of ascorbic acid 170 mg/mL solution, 25 µL mixed solution of berberine and metabolites (with the exception of dihydroberberine) at different levels, 25 µL of dihydroberberine solution, stabilized with 17 mg/mL ascorbic acid, at different levels and 25 µL of an internal standard solution containing 0.625 μg/mL of berberine-d6 and 2.5 μg/mL tetrahydropalmatine. The calibration curve was in the 62.5–5,000 ng/g range, and included 62.5, 125, 250, 500, 1,000, 2,500, and 5,000 ng/g levels. […]
# T84 cells = test: Berberine metabolism in intestinal cell cultures, T84; type: in vitro ADME, human
# Protocol: as §3, §2
# [3] = Dihydroberberine stability in solution over 24 hours; type: physicochemical; conditions: within 24 h; 10 ng/mL in Milli-Q water, 10°C, without vitamin C
# Protocol: A working solution of dihydroberberine at 10 ng/mL was prepared in Milli-Q water and supplemented or not with 17 mg/mL L-ascorbic acid (vitamin C) solution and injected during 24 hours of storage time in the autosampler at 10°C.
Detection in plasma [1],"Detection in cell culture (Caco-2 cells; Caco-2, 0.1 μg/mL berberine, 48 h)",Ratio caecum / ileum (concentration) ([2]; 0.1 g berberine/kg feed),Ratio caecum / ileum (concentration) ([2]; 0.5 g berberine/kg feed),Ratio caecum / ileum (concentration) ([2]; 1 g berberine/kg feed),"Detection in cell culture (T84 cells; T84, 0.1 μg/mL berberine, 48 h)","Log2(fold change) of metabolite response, cell culture over berberine control medium at 48 h (Caco-2 cells; human, Caco-2, 48 h, 0.1 µg/mL)","Log2(fold change) of metabolite response, cell culture over berberine control medium at 48 h (T84 cells; human, 0.1 µg/mL)",Oxidation of dihydroberberine back to berberine [3],Compound
not detected,not detected,1.94,1.48,0.95,not detected,,,,"COc1ccc2cc3n(c(=O)c2c1OC)CCc1cc2c(cc1-3)OCO2 [Oxyberberine, oxyberberine]"
,,,,,,-0.18,-0.72,,"COc1cc2c(cc1OC)-c1cc3ccc(OC)c(OC)c3c[n+]1CC2 [Palmatine, palmatine chloride]"
effectively detected,,0.75,0.27,0.44,,,,up to 66%,"COc1ccc2c(c1OC)CN1CCc3cc4c(cc3C1=C2)OCO4 [Dihydroberberine, dihydroberberine]"
